Test system: HUVEC/MSC spheroids viability
Experiment: Human HUVEC/MSC cell line growth inhibition [KRAS2];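 as to viability, T/C: percent of DMSO vehicle control luminescence so 100% = untreated viability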
Conditions: for IC50: curve of first compound; for viability, T/C: stronger effect = lower value
Excerpt: Multicellular complex tumor spheroid response to RAS pathway inhibitors in combination with a targeted agents in patient-derived cell lines with oncogenic KRAS variants from multiple cancer types
A high-throughput screen of multi-cell type tumor spheroids was designed to identify active combinations of targeted small molecules and KRAS pathway inhibitors. Complex spheroids include a stromal component modeled by human endothelial cells (HUVEC) and fibroblasts modeled by human mesenchymal stem cells (MSCs). The concentration ranges selected for each drug and investigational agent were based upon clinically achievable concentrations if the clinical Cmax of the agent was known. * [This particular assayID is a followup dataset requested by reviewers of the manuscript. It is a test of the HUVEC and MSC without the tumor cells, and was conducted using different drug plates and a different plate layout.]
Compounds. The drugs and investigational agents: BI-3406 (NSC825286), BAY-293 (NSC824723), batoprotafib (TNO155; NSC825523), sotorasib (AMG 510; NSC818433), MRTX1257 (NSC819558), elimusertib (BAY 1895344; NSC800525), molibresib (GSK525762; NSC774829), temuterkib (LY3214996; NSC803410), venetoclax (NSC766270), alisertib (NSC759677), olaparib (NSC753686), talazoparib (NSC767125), erdafitinib (NSC781556), ipatasertib (NSC767898), cabozantinib (NSC761068), nintedanib (NSC756659), abemaciclib (NSC768073), docetaxel (NSC628503), trametinib (NSC758246), and sapanisertib (NSC764658) were obtained from the National Cancer Institute (NCI) Developmental Therapeutics Program Chemical Repository. The FDA-approved anticancer drug set is available from the Developmental Therapeutics Program. […] The stock solutions were prepared in dimethyl sulfoxide (DMSO, Sigma-Aldrich, St. Louis, MO, cat. D2650) at 800-fold the tested concentration and stored at -70 degrees C prior to their use. All drugs and investigational agents were tested over a range starting from a high concentration at or near the clinical Cmax and decreasing in half-log increments. If the clinical Cmax for an agent had not been determined, the highest concentration tested was 10 microM.
Cell Culture. All cells were maintained in an incubator at 37 degrees C and 5% CO2 with 95% humidity. The PDC lines were cultured according to standard operating procedures established by the NCI PDMR (https://pdmr.cancer.gov/sops/default.htm). Briefly, all PDCs were thawed and cultured in Matrigel-coated flasks prepared with a working solution of 1X Ham's F-12 nutrient mix, without supplementation (Invitrogen, Waltham, MA, cat. 11765054), 100 U/mL penicillin-streptomycin (Invitrogen, cat. 15140122), and 2.5% Matrigel (Corning Inc., Corning, NY, cat. 354248) for the first three passages. All PDCs were cultured in complete DMEM/F-12 media containing advanced DMEM/F-12 (Invitrogen, cat. 12634028), 4.9% defined fetal bovine serum, heat inactivated (HyClone Laboratories Inc., Logan, UT, cat. SH30070.03HI), 389 ng/mL hydrocortisone (Sigma-Aldrich, cat. H4001), 9.7 ng/mL human EGF recombinant protein (Invitrogen, cat. PHG0313), 23.4 microg/mL adenine (Sigma-Aldrich, cat. A2786), 97.3 U/mL penicillin-streptomycin (Invitrogen, cat. 15140122), 1.9 mM L-glutamine (Invitrogen, cat. 25030081), and 9.7 microM Y-27632 dihydrochloride (Tocris Bioscience, Bristol, United Kingdom, cat. 1254). The PDCs were cultured in complete DMEM/F12 media without 9.7 microM Y-27632 dihydrochloride for at least two passages prior to the screen. The established cell line HOP-62 was cultured in RPMI 1640 medium, HEPES (Invitrogen, cat. 22400105) with 10% defined fetal bovine serum (HyClone Laboratories Inc., cat. SH30070.03) and 2 mM L-glutamine (Invitrogen, cat. 25030081). The pooled donor HUVEC were cultured in endothelial cell growth medium 2 (PromoCell, Heidelberg, Germany, cat. C-22011) and the hMSC were cultured in mesenchymal stem cell growth medium 2 (PromoCell, cat. C-28009). […]

## CC(C)NCC(C(=O)N1CCN(c2ncnc3c2C(C)CC3O)CC1)c1ccc(Cl)cc1 (configuration not stated) + CC1OCC2(CCN(c3cnc(Sc4ccnc(N)c4Cl)c(N)n3)CC2)C1N
Second compound 0.0316 µM
  IC50: 7880 nM
Second compound 0.1 µM
  IC50: 6150 nM
Second compound 0.316 µM
  IC50: 2550 nM
Second compound 1 µM
  IC50: 1310 nM
Second compound 3.16 µM
  IC50: 564 nM
Second compound 10 µM
  IC50: 228 nM
Second compound 0.0316 µM, first compound 0.0316 µM
  viability, T/C: 115%
Second compound 0.0316 µM, first compound 0.1 µM
  viability, T/C: 109%
Second compound 0.0316 µM, first compound 0.316 µM
  viability, T/C: 93.5%
Second compound 0.0316 µM, first compound 1 µM
  viability, T/C: 66.2%
Second compound 0.0316 µM, first compound 3.16 µM
  viability, T/C: 56.2%
Second compound 0.0316 µM, first compound 10 µM
  viability, T/C: 47.6%
Second compound 0.1 µM, first compound 0.0316 µM
  viability, T/C: 123%
Second compound 0.1 µM, first compound 0.1 µM
  viability, T/C: 107%
Second compound 0.1 µM, first compound 0.316 µM
  viability, T/C: 90.9%
Second compound 0.1 µM, first compound 1 µM
  viability, T/C: 59.6%
Second compound 0.1 µM, first compound 3.16 µM
  viability, T/C: 57.3%
Second compound 0.1 µM, first compound 10 µM
  viability, T/C: 46.1%
Second compound 0.316 µM, first compound 0.0316 µM
  viability, T/C: 94.1%
Second compound 0.316 µM, first compound 0.1 µM
  viability, T/C: 107%
Second compound 0.316 µM, first compound 0.316 µM
  viability, T/C: 98.1%
Second compound 0.316 µM, first compound 1 µM
  viability, T/C: 68.1%
Second compound 0.316 µM, first compound 3.16 µM
  viability, T/C: 49.5%
Second compound 0.316 µM, first compound 10 µM
  viability, T/C: 38%
Second compound 1 µM, first compound 0.0316 µM
  viability, T/C: 89.6%
Second compound 1 µM, first compound 0.1 µM
  viability, T/C: 91%
Second compound 1 µM, first compound 0.316 µM
  viability, T/C: 69.8%
Second compound 1 µM, first compound 1 µM
  viability, T/C: 56.4%
Second compound 1 µM, first compound 3.16 µM
  viability, T/C: 36.4%
Second compound 1 µM, first compound 10 µM
  viability, T/C: 31.6%
Second compound 3.16 µM, first compound 0.0316 µM
  viability, T/C: 80.3%
Second compound 3.16 µM, first compound 0.1 µM
  viability, T/C: 74.4%
Second compound 3.16 µM, first compound 0.316 µM
  viability, T/C: 58.3%
Second compound 3.16 µM, first compound 1 µM
  viability, T/C: 43.1%
Second compound 3.16 µM, first compound 3.16 µM
  viability, T/C: 22.1%
Second compound 3.16 µM, first compound 10 µM
  viability, T/C: 21%
Second compound 10 µM, first compound 0.0316 µM
  viability, T/C: 65.1%
Second compound 10 µM, first compound 0.1 µM
  viability, T/C: 62.4%
Second compound 10 µM, first compound 0.316 µM
  viability, T/C: 43.4%
Second compound 10 µM, first compound 1 µM
  viability, T/C: 30.8%
Second compound 10 µM, first compound 3.16 µM
  viability, T/C: 14.3%
Second compound 10 µM, first compound 10 µM
  viability, T/C: 5.59%
